Data from the NIST ThermoML archive (doi:10.1016/j.jct.2006.05.007).

Conditions: Liquid

CC(C)OC(C)C [diisopropyl ether]
Twin ebulliometer
Conditions | vapor or sublimation pressure [kPa]
308.58 K | 30.91
313.25 K | 37.26
318.65 K | 45.83
324.17 K | 56.12
329.4 K | 67.49
334.98 K | 81.57
339.03 K | 93.18
339.73 K | 95.31
340.41 K | 97.44

CC(C)COC(C)(C)C [isobutyl tert-butyl ether]
Ebulliometric method (Recirculating still)
Conditions | vapor or sublimation pressure [kPa]
310.61 K | 6.234
317.06 K | 8.426
322.6 K | 10.8
327.65 K | 13.43
333.13 K | 16.83
338.55 K | 20.88
343.33 K | 25.07
349 K | 30.91
354.26 K | 37.26
360.31 K | 45.83
366.48 K | 56.12
372.35 K | 67.49
378.59 K | 81.57
383.13 K | 93.18
383.92 K | 95.31
384.69 K | 97.44
385.45 K | 99.6

CCOC(C)(C)C [2-ethoxy-2-methylpropane]
Twin ebulliometer
Conditions | vapor or sublimation pressure [kPa]
298.25 K | 16.83
303.13 K | 20.88
307.44 K | 25.07
312.55 K | 30.91
317.29 K | 37.26
322.74 K | 45.83
328.3 K | 56.12
333.56 K | 67.49
339.17 K | 81.57
343.23 K | 93.18
343.89 K | 95.31
344.57 K | 97.44
345.25 K | 99.6
345.92 K | 101.69
